The results in this text go back to patent publication US10787423B2, “Piperazine and piperidine derivatives, their synthesis and use thereof in inhibiting VDAC oligomerization, apoptosis and mitochondria dysfunction” (THE NATIONAL INSTITUTE FOR BIOTECHNOLOGY IN THE NEGEV LTD., priority 2015, dated 2020).

Assay [1] deals with Cyto c release from mitochondria. Kind of assay: Selenite-induced Cytochrome c release from mitochondria in HEK-293 cells. The class given is cell-based. The settings on record: Homo sapiens, HEK293, compound 2 h then selenite 15 μM 4 h, means±SD (n=3). As for the experimental part: One of the ways cell apoptosis is activated is by release of Cytochrome c (Cyto c) from the mitochondria into cytosol. […] Cyto c released to the cytosol may be analyzed by immunoblotting using Cyto c-specific antibodies.
Cells treated with apoptosis inducers in the absence or presence of the tested compounds were harvested, washed twice with PBS, pH 7.4 and gently resuspended at 6 mg/ml in ice-cold buffer (100 mM KCl, 2.5 mM MgCl2, 250 mM sucrose, 20 mM HEPES/KOH pH 7.5, 0.2 mM EDTA, 1 mM dithiothreitol, 1 μg/ml leupeptin, […] and 0.1 mM PMSF) containing 0.025% digitonin and incubated for 10 min on ice. Samples were centrifuged at 10,000×g (relative centrifugal force—RCF) at 4° C. for 5 min to obtain supernatants (cytosolic extracts free of mitochondria) and pellet (fraction that contains mitochondria). Cytochrome c released to the cytosol was analyzed by immunoblotting using Cytochrome c-specific antibodies. Anti-VDAC1 and anti-GAPDH antibodies were used to verify that the cytosolic extracts are mitochondria-free.
c. Cytochrome c (Cyto c) release was determined as described above in Methods (Cytochrome c release from mitochondria). Briefly, to assess Cyto c release, cells were incubated on ice for 10 min with 0.025% digitonin, centrifuged, and the pellet (mitochondria—Mito) and supernatants (cytosol—Cytos) were subjected to SDS-PAGE and immunoblotting, using anti-Cyto c, antibodies. Anti-VDAC1 and anti-GAPDH antibodies were used to verify that the cytosolic extracts are mitochondria-free. The results of Cyto c release from the mitochondria as induced by selenite are presented as immunoblots, with the cytosolic and mitochondrial fractions confirmed by immunoblotting of GAPDH (glyceraldehyde-3-phosphate dehydrogenase) and VDAC1, respectively, in the FIG. 15d. The data are presented as percent inhibition. The results shown correspond to means±SD (n=3). The closed circle (●) indicates VBIT-4 (compound of Formula 1), the open circle (◯) indicates compound of Formula 10 (AKOS-022), and an open square (□) indicates VBIT-3 (compound of Formula 2).
d. […]

Assay [2] relates to HEK-293 cells. Kind of assay: Selenite-induced apoptosis, annexin V-FITC/PI staining and FACS, HEK-293 cells. The class given is cell-based. The settings on record: Homo sapiens, HEK293, compound 2 h then selenite 15 μM 4 h, means±SD (n=3). As for the experimental part: The ability of the compounds of general Formulae (I), (Ia), (Ib), (Ic), (Id), (II) and (IIa) to inhibit apoptosis may be analyzed by annexin-V/propidium iodide (PI) staining and flow cytometry.
Cells, e.g. HeLa cells (2×10^5), untreated or treated with apoptosis-inducing reagents, were analyzed for apoptotic cell death using PI, annexin V-FITC and flow cytometer analysis. Cells were collected (1500×g for 10 min), washed, and resuspended in 200 μl binding buffer (10 mM HEPES/NaOH, pH 7.4, 140 mM NaCl, and 2.5 mM CaCl2). Annexin V-FITC was added according to the recommended Protocol (Enzo Life Sciences, Switzerland), and the cells were incubated in the dark for 15 min. Cells were then washed with binding buffer and resuspended in 200 μl binding buffer, to which PI was added immediately before flow cytometry analysis. At least 10,000 events were collected, recorded on a dot plot, and analyzed by the FACSCalibur™ flow cytometer software (BD Biosciences, Franklin Lakes, N.J.).
b. Additionally, the inhibition of selenite-induced apoptosis by the compounds as analyzed using annexin V-FITC/PI staining and FACS, presented in the FIG. 15c.
d. IC50 values of the tested compounds were derived from the obtained data. The results shown correspond to means±SD (n=3).

The test system of assay [3] is 5XFAD transgenic mice with AD-like disease. The experiment in a line: Radial-arm water maze learning and memory task in 5XFAD transgenic mice. The class given is in vivo, mouse. The settings on record: 5XFAD mice, 20 mg/kg in drinking water for 4 months, tested at six months of age.
Method: Animals at age two months were assigned to three groups: transgenic treated (TG-T, 8 males and 3 females), transgenic vehicle (TG-V, 8 males and 3 females), and wild type (WT, 10 males and 8 females).
Two-months old 5XFAD mice were provided with 0.9% of DMSO solution or VBIT-4 solution (20 mg/kg in 0.9% DMSO) in drinking water replaced with fresh solution three times a week in the first month and thereafter twice a week for additional 3 months.
When the mice reached the age of six months, a two-day radial-arm water maze (RAWM) trial was performed as described previously (Jennifer Alamed, et al, Nature Protocols 1, (2006) 1671-1679) to test the effect of VBIT-4 on learning and memory task. The RAWM containing six swim paths (arms) was used. The arms were extending out from an open central area with an escape platform located at the end of one arm (the goal arm). The goal arm location remained constant for a given mouse. On day 1, mice were trained for 15 trials (spaced over 3 h), with trials alternating between visible and hidden platforms. On day 2, mice were trained for 15 trials with the hidden platform.
Entry into an incorrect arm was scored as an error, and the times spent by the animal to find the platform were recorded. […] To examine the source of differences the post-hoc test of Bonferroni-type was used. […]
The test system of assay [4] is dopaminergic neurons. The experiment in a line: MPTP-induced Parkinson-like disease mouse model, brain immunofluorescence. The class given is in vivo, C57BL/6N male mice. The settings on record: MPTP 20 mg/kg IP 5 days; 20 mg/kg in drinking water from day 3. As for the experimental part: The Experimental protocols were approved by the Institutional Animal Care and Use Committee. Briefly, C57BL/6N male mice 3-months old were injected IP 3 times/week with vehicle (saline) as control. Parkinsonism was induced by repetitive intraperitoneal injection of 20 mg/kg 1-methyl-4-phenyl-1,2,3,6-tetrahydropyridine hydrochloride (MPTP), Sigma, Israel) in saline, for 5 consecutive days. Group 3 was injected with MPTP and at day 3 of MPTP treatment it was subjected to compound of Formula 3 (VBIT-12) 20 mg/kg in drinking water.
Brains from the scarified mice were analyzed for the pathophysiological features of PD-like mouse models as induced by MPTP and the effect of VBIT-12 on the dopaminergic neurons (DN) was analyzed. Fixed brains were subjected to coronal sections (5 μm thickness) including the Substantia nigra pars compacta (SNc), ventral tegmental area (VTA) and Substantia nigra pars reticular (SNR) (see FIG. 25B) and used for immunofluorescence (IF) (FIG. 25C). Evaluation of dopaminergic neuron degeneration was monitored using anti-Tyrosine hydroxylase (TH) antibodies, which is expressed in dopaminergic neurons.
This decrease was prevented by VBIT-12, as reflected by the increase of the number of cells stained with TH relative to the MPTP-treated group not subjected to VBIT-12.
Sections were also subjected for staining with anti-VDAC1 antibodies (FIG. 25D). […]

The IC50 is the concentration at which inhibition is half-maximal. Low readings indicate greater potency in that assay, high ones weaker potency in that assay. In turn, `O=C(CC(CO)N1CCN(c2ccc(OC(F)(F)F)cc2)CC1)Nc1ccc(Cl)cc1` (racemic) [Formula 1, N-(4-chlorophenyl)-4-hydroxy-3-(4-(4-(trifluoromethoxy)phenyl)-piperazin-1-yl)butanamide] yielded an IC50 in assay [1] of 1800 ± 240 nM. The compound also had an IC50 in assay [2] of 2900 ± 120 nM. In assay [3], the “RAWM number of errors” value is reported as “better than untreated TG” and the “RAWM total time spent” value is “better than untreated TG”.

As for `O=C(O)CNC(=O)C1(Nc2ccccc2)CCN(Cc2cccc3ccccc23)CC1` [Formula 3], in assay [4], the “VDAC1 levels in dopaminergic neurons (anti-VDAC1 staining)” value is “decreased” and the “dopaminergic neurons in SNc (TH staining)” value is given as “protected against neuronal loss”.
